Assays:
[1] = accelerated coffee staining test: hydroxyapatite disks immersed in concentrated coffee with or without additive; details: 7 minutes immersion in coffee (11 grams grounds to 0.5 cups water); uniform scale, 0 = un-stained disk, 5 = coffee without additive
Protocol: Initially, an accelerated staining test was performed using a very strong coffee concentrate with short periods of immersion. This protocol emulates the actual oral staining process; i.e., live teeth aren't generally submerged in coffee for long periods of time since coffee is only held in the mouth for short periods of time, and the residues are rapidly diluted by saliva. In addition, coffee chemistry and pH changes rapidly due to temperature-excited oxidation—which results in significant acid formation in the first 20 minutes after brewing. As a result, coffee immersion in-vitro for times exceeding 20 minutes exposes test-items to a chemical environment which is not representative of that found in a mouth during a typical human consumption of coffee.
As one representative example of multiple tests using CHITOSAN NICOTINATE as an essential substance to prevent staining of hydroxyapatite (as found in tooth enamel), 0.02 grams of CHITOSAN NICOTINATE was placed in one of two containers of coffee brewed with 11.0 grams of coffee grounds to 0.5 cups water. Then disks made of hydroxyapatite were immersed in each container for 7 minutes time; and subsequently compared to establish the degree of staining. For meaningful comparisons of staining, the non-CHITOSAN NICOTINATE coffee was used as the dark stain standard, with an arbitrary value of 5. […]

[2] = stain reversal: coffee-stained hydroxyapatite disk immersed in brewed coffee containing additive; details: previously coffee-stained disk immersed 15 minutes in brewed coffee with additive; original stain 100%, un-stained disk 0%
Protocol: In addition, when a previously-coffee-stained hydroxyapatite disk was half-immersed within the brewed coffee for 15 minutes, the coffee-immersed area was lightened by 10%, where the original stain is said to be 100% and an un-stained disk is said to be 0%.
As one example of multiple tests using protein-splitting enzymes as an essential ingredient to reverse staining of hydroxyapatite, 20 mg of Papain was placed in one container of coffee, which was then brewed with 11 grams of coffee grounds to 0.5 cups water. For this series of tests, only coffee-stained hydroxyapatite disks were then immersed in the freshly brewed coffee for 15 minutes time.

| Molecule | degree of staining of hydroxyapatite disks [1] | coffee-immersed stained area lightened by [2] |
| --- | --- | --- |
| CS(C)(=O)=O [METHYLSULFONYLMETHANE (DIMETHYLSULFONE), METHYLSULFONYLMETHANE] | 2 |  |
| Papain: protein-splitting enzyme, plant protease (protein, UniProt P00784 134-345, looked up) Papain: IPEYVDWRQKGAVTPVKNQGSCGSCWAFSAVVTIEGIIKIRTGNLNEYSEQELLDCDRRSYGCNGGYPWSALQLVAQYGIHYRNTYPYEGVQRYCRSREKGPYAAKTDGVRQVQPYNEGALLYSIANQPVSVVLEAAGKDFQLYRGGIFVGPCGNKVDHAVAAVGYGPNYILIKNSWGTGWGENGYIRIKRGTGNSYGVCGLYTSSFYPVKN |  | 20% |

Source: US8974848B1, “Ingestible product and method for enhancing the appearance and quality of teeth in-vivo” (priority 2008, dated 2015)
